{"source": "ChEMBL document CHEMBL1201862", "about": "“PubChem BioAssay data set” (2004)", "key": {"[1]": {"biological_target": "Eukaryotic translation initiation factor 4H (Homo sapiens, UniProt Q15056)", "assay": "eIF4H binding inhibition – biochemical, uHTS, fluorescence polarization, translation initiation inhibitor project, primary screen (AID 2012)"}, "[2]": {"biological_target": "Polyadenylate-binding protein 1 (Homo sapiens, UniProt P11940)", "sequence (P11940 whole entry)": "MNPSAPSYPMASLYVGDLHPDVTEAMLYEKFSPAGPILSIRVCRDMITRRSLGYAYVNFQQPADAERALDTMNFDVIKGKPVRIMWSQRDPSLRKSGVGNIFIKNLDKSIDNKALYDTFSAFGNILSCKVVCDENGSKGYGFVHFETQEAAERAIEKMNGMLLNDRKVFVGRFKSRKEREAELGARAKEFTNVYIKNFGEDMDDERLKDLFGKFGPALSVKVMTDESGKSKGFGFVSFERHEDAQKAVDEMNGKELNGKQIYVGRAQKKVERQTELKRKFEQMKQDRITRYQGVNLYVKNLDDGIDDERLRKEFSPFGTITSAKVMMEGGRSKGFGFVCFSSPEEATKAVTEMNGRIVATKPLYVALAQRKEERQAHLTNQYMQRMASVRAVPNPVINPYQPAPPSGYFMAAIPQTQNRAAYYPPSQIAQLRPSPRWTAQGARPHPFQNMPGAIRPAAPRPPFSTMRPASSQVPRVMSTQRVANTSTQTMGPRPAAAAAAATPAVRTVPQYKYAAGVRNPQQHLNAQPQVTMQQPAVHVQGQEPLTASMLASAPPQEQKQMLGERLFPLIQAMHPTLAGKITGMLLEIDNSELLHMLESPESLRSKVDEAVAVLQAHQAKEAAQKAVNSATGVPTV", "assay": "blockers of PABP interaction with poly(A) – biochemical, fluorescence polarization, […] (AID 2014)"}, "cells [3]": {"assay": "cells"}, "[4]": {"assay": "viability of uninfected HEp-2 cells – cell-based, HTS, cytotoxicity control for RSV inhibitor project, dose response (AID 2410)", "format": "functional", "conditions": "human respiratory syncytial virus"}, "Insulin-degrading enzyme": {"biological_target": "Insulin-degrading enzyme (Homo sapiens, UniProt P14735)", "sequence (P14735 whole entry)": "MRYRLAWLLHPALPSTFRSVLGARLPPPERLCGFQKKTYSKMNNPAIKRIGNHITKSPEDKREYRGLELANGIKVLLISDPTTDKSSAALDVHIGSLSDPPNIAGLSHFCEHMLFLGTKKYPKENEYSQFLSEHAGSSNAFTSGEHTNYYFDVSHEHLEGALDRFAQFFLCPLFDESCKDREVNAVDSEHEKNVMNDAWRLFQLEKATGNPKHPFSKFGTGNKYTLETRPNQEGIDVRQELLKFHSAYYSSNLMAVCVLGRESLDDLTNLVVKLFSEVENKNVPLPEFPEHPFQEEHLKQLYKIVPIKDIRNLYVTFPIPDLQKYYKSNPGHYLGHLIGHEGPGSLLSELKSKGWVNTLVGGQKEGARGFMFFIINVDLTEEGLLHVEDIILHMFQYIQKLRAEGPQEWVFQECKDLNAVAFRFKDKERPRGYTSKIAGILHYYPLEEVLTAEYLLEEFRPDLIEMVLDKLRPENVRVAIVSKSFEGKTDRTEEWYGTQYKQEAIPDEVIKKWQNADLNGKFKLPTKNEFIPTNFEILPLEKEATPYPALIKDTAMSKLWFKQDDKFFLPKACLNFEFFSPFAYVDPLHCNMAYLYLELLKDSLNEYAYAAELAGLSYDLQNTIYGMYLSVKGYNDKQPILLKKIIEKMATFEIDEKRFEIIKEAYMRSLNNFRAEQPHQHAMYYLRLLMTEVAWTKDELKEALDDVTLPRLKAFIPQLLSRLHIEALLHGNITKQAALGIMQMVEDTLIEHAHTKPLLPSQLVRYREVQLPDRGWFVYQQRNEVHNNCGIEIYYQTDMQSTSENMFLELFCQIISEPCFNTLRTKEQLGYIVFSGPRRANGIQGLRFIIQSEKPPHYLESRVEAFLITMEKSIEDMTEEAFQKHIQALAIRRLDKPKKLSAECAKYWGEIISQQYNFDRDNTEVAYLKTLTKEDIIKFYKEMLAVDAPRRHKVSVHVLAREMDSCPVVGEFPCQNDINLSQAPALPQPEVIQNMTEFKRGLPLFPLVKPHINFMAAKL", "assay": "Dose Response: Fluorescence polarization-based cell-based high throughput dose response assay for inhibitors of insulin-degrading enzyme (IDE). [Related pubchem assays: 434962 (Primary screen (IDE inhibitors in singlicate)), 449730 (Counterscreen (Cytotoxicity in triplicate)), 435028 (Confirmation (IDE inhibitors in triplicate)), 434984 (Summary …", "format": "functional"}, "[5]": {"assay": "Counterscreen for IDE inhibitors: Luminescence-based cell-based high throughput dose response assay to identify compounds that are cytotoxic to HEK cells. [Related pubchem assays: 434962 (Primary screen (IDE inhibitors in singlicate)), 449730 (Counterscreen (Cytotoxicity in triplicate)), 435028 (Confirmation (IDE inhibitors in triplicate)) …", "format": "functional", "conditions": "HEK293"}, "Staphylococcus aureus": {"system": "Staphylococcus aureus", "assay": "Inhibitors of Bacterial Quorum Sensing Structure Activity Relationship (SAR) Analysis: Dose Response Assay. [Related pubchem assays: 700, 527 ]", "format": "functional, organism-based"}, "[6]": {"biological_target": "T1, Zinc finger protein mex-5 (Caenorhabditis elegans, UniProt Q9XUB2)", "T1 sequence (Q9XUB2 whole entry)": "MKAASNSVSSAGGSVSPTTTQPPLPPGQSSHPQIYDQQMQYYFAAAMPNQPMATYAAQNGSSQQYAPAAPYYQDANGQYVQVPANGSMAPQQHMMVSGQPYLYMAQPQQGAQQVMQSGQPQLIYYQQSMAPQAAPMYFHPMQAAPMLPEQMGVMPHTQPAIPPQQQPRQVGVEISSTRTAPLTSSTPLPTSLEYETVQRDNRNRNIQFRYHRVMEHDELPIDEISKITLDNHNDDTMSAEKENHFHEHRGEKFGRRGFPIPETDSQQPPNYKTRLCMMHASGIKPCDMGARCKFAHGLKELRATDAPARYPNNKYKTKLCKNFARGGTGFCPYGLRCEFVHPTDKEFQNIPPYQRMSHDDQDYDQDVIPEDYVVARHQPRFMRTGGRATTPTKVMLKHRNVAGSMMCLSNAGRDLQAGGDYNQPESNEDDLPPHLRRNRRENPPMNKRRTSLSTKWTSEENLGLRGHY", "assay": "potency of MEX-5 RNA-binding blockers – biochemical, C. elegans, fluorescence polarization, dose response (AID 1960)"}, "[7]": {"biological_target": "T2, Aryl hydrocarbon receptor (Homo sapiens, UniProt P35869)", "T2 sequence (P35869 whole entry)": "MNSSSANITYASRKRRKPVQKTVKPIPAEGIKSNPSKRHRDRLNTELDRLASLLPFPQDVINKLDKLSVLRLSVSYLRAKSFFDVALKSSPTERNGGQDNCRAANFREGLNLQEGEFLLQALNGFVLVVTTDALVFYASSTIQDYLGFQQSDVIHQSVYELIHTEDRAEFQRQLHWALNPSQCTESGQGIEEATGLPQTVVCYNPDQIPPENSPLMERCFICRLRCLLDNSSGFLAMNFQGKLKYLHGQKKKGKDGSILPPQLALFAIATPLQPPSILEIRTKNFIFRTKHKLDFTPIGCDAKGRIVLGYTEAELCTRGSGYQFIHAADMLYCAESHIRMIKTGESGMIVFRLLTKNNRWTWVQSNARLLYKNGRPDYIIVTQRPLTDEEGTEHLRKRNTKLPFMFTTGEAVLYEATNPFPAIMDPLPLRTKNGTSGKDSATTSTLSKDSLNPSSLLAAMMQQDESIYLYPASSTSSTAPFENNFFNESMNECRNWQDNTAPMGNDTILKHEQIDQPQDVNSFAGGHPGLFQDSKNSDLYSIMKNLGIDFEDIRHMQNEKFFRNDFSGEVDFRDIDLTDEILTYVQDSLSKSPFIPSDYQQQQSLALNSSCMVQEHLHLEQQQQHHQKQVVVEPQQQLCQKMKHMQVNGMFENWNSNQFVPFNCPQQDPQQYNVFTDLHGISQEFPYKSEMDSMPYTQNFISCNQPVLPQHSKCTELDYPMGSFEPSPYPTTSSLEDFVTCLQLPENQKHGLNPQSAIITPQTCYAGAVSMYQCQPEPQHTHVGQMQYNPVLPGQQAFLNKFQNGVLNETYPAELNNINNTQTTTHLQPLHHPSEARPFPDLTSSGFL", "assay": "Luminescence-based cell-based high throughput dose response assay for activators of the Aryl Hydrocarbon Receptor (AHR). [Related pubchem assays: 2796 (Primary screen (AHR activators in singlicate)), 2845 (Confirmation screen (AHR activators in triplicate)), 434939 (Counterscreen (PXR activators in triplicate)), 2804 (Summary (AHR activators))]", "format": "ADME"}, "[8]": {"biological_target": "T3, RNA-binding protein pos-1 (Caenorhabditis elegans, UniProt G5EF15)", "T3 sequence (G5EF15 whole entry)": "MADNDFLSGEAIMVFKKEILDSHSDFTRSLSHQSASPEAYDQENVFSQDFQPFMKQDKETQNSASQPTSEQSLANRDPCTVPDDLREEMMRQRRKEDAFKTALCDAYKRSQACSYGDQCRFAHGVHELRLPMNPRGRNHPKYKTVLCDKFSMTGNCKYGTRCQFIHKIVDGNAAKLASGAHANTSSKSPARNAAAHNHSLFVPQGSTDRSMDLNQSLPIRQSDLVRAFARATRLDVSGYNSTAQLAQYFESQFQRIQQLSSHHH", "assay": "disruptors of C. elegans POS-1 RNA interaction – biochemical, fluorescence polarization, dose response (AID 1964);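 note: purified POS-1 fused to maltose binding protein made in E. coli; potency of compounds blocking POS-1 binding to fluorescent RNA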"}, "cells [9]": {"assay": "cells", "format": "functional, cell-based"}, "[10]": {"assay": "luciferase reporter signal reduction – luminescence, H4-C neuroglioblastoma cells, dose response (AID 2458);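 note: H4 neuroglioblastoma cells stably carrying a luciferase reporter gene fusion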", "format": "functional, cell-based"}, "[11]": {"assay": "alpha-synuclein stem-loop translation blockers – luminescence, H4 neuroglioblastoma cells, dose confirmation, confirmation (AID 2454)", "format": "functional, cell-based"}, "INS1": {"system": "INS1", "assay": "INS-1E survival protection against cytokine death – cell-based, luminescence, retest, dose response (AID 449756);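 note: cell death triggered by IL-1 beta plus TNF-alpha plus IFN-gamma mixture; protective hits raise ATP signal compared with cytokine alone wells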", "format": "functional", "conditions": "Rattus norvegicus"}, "[12]": {"assay": "Luminescence Cell-Based Dose Response HTS to Identify Inhibitors of 5'UTR Stem-Loop Driven Prion Protein mRNA Translation in H4 Neuroglioblastoma Cells. [Related pubchem assays: 1827 (Project Summary), 1813 (Primary HTS)]", "format": "functional"}, "[13]": {"assay": "alpha-synuclein stem-loop luciferase translation blockers – H4 neuroglioma cells, luminescence, confirmation (AID 1988)", "format": "functional, cell-based"}, "Albumin": {"biological_target": "Albumin (Bos taurus, UniProt P02769)", "sequence (P02769 whole entry)": "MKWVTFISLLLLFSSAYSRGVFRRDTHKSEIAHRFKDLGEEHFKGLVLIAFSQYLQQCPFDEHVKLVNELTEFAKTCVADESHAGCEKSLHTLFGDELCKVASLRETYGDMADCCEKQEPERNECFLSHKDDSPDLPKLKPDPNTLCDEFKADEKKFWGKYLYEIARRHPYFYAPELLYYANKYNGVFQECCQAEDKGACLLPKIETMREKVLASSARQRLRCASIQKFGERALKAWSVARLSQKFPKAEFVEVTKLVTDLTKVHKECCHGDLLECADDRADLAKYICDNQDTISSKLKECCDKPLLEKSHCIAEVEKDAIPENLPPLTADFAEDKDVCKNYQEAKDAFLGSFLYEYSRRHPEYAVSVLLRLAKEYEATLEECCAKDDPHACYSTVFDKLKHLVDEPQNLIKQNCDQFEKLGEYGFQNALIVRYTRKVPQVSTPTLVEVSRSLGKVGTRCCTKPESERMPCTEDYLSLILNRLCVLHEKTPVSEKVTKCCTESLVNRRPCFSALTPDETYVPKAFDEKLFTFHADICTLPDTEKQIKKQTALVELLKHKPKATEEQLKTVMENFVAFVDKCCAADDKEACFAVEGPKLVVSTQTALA", "assay": "Counterscreen for inhibitors of T-cell receptor (TCR)-CD3 interaction: Fluorescence-based biochemical high throughput dose response assay to identify inhibitors of T-cell receptor (TCR)-CD3 interaction using a TAMRA-labeled BSA probe.", "format": "functional"}, "HEK293": {"system": "HEK293", "assay": "EBV LMP1 TES2 canonical NF-kB signalling blockers – cell-based, HEK293, luciferase, cherry-pick, dose response (AID 588343)", "format": "functional", "conditions": "Homo sapiens"}, "HT-1080": {"system": "HT-1080", "assay": "HT1080 cell viability loss – fluorescence readout (AID 620)", "format": "functional, cell-based", "conditions": "Homo sapiens"}, "[14]": {"biological_target": "Luciferin 4-monooxygenase (Photinus pyralis, UniProt P08659)", "sequence (P08659 whole entry)": "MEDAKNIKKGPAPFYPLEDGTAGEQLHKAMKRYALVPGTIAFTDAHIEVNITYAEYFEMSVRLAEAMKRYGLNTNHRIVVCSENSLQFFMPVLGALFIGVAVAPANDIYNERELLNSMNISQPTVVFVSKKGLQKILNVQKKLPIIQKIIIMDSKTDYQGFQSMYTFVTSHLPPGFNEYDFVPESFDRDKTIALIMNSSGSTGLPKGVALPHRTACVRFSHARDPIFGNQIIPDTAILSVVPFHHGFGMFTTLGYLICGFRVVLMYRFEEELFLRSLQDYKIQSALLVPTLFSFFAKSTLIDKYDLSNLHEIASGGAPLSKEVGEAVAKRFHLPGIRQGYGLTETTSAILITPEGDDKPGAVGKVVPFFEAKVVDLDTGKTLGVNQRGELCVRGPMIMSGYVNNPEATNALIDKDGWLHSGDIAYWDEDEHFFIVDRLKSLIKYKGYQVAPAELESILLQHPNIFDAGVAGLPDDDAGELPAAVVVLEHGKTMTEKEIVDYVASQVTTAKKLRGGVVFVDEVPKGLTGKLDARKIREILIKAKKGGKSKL", "assay": "Counter Screen for Luciferase-based Assay Positives. [Related pubchem assays: 620, 618, 411 ]"}, "[15]": {"biological_target": "Induced myeloid leukemia cell differentiation protein Mcl-1 (Homo sapiens, UniProt Q07820)", "sequence (Q07820 whole entry)": "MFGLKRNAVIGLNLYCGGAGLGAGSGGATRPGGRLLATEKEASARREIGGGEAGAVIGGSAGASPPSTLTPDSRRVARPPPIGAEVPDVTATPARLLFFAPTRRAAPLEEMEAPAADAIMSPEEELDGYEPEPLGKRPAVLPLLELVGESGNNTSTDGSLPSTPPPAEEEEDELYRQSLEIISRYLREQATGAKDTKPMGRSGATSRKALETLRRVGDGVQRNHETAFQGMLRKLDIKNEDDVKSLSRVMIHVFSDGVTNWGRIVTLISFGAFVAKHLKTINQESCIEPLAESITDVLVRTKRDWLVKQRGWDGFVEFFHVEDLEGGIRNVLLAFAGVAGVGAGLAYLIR", "format": "functional"}, "[16]": {"assay": "luciferase reporter signal suppression in cells – H4 neuroglioma cells, luminescence, dose response (AID 1990)", "format": "functional, cell-based"}}, "note": "Activity calls are given as the source filed them."}
{"smiles": "CC1=C(C(=O)OC(C)C)C(c2ccco2)NC(=O)N1", "note": "(centres undefined)", "values": [{"measurement": "IC50", "setting": "[1]", "result": "34.7 µM (active)"}, {"measurement": "IC50", "setting": "[2]", "result": "42.8 µM (active)"}]}
{"smiles": "COCc1cc(C)nc(SCC(=O)Nc2ccccc2N2CCOCC2)c1C#N", "values": [{"measurement": "IC50", "setting": "cells [3]", "result": "9.24 µM (active)"}, {"measurement": "CC50", "setting": "[4]", "result": "> 50 µM (active)"}]}
{"smiles": "Cc1cccc(Nc2nc(N)c(C#N)c(CC#N)c2C#N)c1", "values": [{"measurement": "IC50", "setting": "Insulin-degrading enzyme", "result": "> 56 µM (not active)"}, {"measurement": "IC50", "setting": "[5]", "result": "29.6 µM (not active)"}]}
{"smiles": "COc1ccc(NC(=O)C(c2cc3c(cc2[N+](=O)[O-])OCO3)N2CC(C)CC(C)C2)cc1", "note": "(centres undefined)", "values": [{"measurement": "IC50", "setting": "Staphylococcus aureus", "result": "1.31 µM (active)"}]}
{"smiles": "NS(=O)(=O)c1ccc(-c2ccc(/C=C3\\SC(=O)NC3=O)o2)cc1", "values": [{"measurement": "EC50", "setting": "[6]", "result": "33.4 µM (active)"}, {"measurement": "EC50", "setting": "[7]", "result": "0.237 µM (active)"}, {"measurement": "EC50", "setting": "[8]", "result": "> 300 µM (not active)"}]}
{"smiles": "CC(=O)N(C(C)=O)c1nc(-c2ccccc2)cn1/N=C/c1ccccc1", "values": [{"measurement": "IC50", "setting": "Insulin-degrading enzyme", "result": "> 55.9 µM (not active)"}, {"measurement": "IC50", "setting": "[5]", "result": "20 µM (not active)"}]}
{"smiles": "C/C(=N\\NC(=O)c1c(C)nc2ccccn12)c1ccc(O)cc1O", "values": [{"measurement": "EC50", "setting": "cells [9]", "result": "0.901 µM (active)"}, {"measurement": "EC50", "setting": "[10]", "result": "0.739 µM (active)"}, {"measurement": "EC50", "setting": "[11]", "result": "> 12 µM (inconclusive)"}, {"measurement": "AC50", "setting": "INS1", "result": "0.586 µM (active)"}, {"measurement": "EC50", "setting": "[12]", "result": "< 0.1 µM (active)"}, {"measurement": "EC50", "setting": "[13]", "result": "< 0.1 µM (active)"}, {"measurement": "IC50", "setting": "Albumin", "result": "> 94.1 µM (inactive)"}]}
{"smiles": "C/C(=N/NC(=O)c1cc(C2CC2)[nH]n1)c1cccs1", "values": [{"measurement": "AC50", "setting": "HEK293", "result": "1.63 µM (active)"}, {"measurement": "EC50", "setting": "HT-1080", "result": "> 50 µM (not active)"}, {"measurement": "EC50", "setting": "[14]", "result": "> 100 µM (not active)"}]}
{"smiles": "CCO/C(O)=C1\\C(C)=NC2=C(C(=O)CC(C)(C)C2)C1c1ccc2c(c1)CCCN2C", "note": "(centres undefined)", "values": [{"measurement": "IC50", "setting": "[15]", "result": "1.65 µM (not active)"}]}
{"smiles": "CC(=O)O[C@@H]1/C=C/[C@](C)(O)C[C@@H](C)C/C=C/[C@H]2[C@@H]3O[C@]3(C)[C@@H](C)[C@H]3[C@H](Cc4ccccc4)NC(=O)[C@@]312", "note": "[EPOXYCYTOCHALASIN H]", "values": [{"measurement": "EC50", "setting": "cells [9]", "result": "0.608 µM (active)"}, {"measurement": "EC50", "setting": "[10]", "result": "0.431 µM (active)"}, {"measurement": "EC50", "setting": "[11]", "result": "0.403 µM (active)"}, {"measurement": "EC50", "setting": "[12]", "result": "< 0.1 µM (active)"}, {"measurement": "EC50", "setting": "[16]", "result": "< 0.1 µM (active)"}, {"measurement": "EC50", "setting": "[13]", "result": "< 0.1 µM (active)"}]}
